According to PMC6978316, “Development of chimeric peptides to facilitate the neutralisation of lipopolysaccharides during bactericidal targeting of multidrug-resistant Escherichia coli” (Communications Biology, 2020):
Like-named read-outs stand apart in the source and are kept apart here. Where a SMILES comes first, the peptide text is derived from it. Bridges are numbered along the chain shown (N, C = ends). Where no end group is shown, it is not given here.

Legend:
pepsin = type: in vitro ADME
trypsin = type: in vitro ADME
in vitro = conditions: mouse, serum, peptide remaining in serum, Mean, mice serum, 37 °C, RP-HPLC, mean of n = 3 (source data Fig. 2f)
Procedure: The thermal, pH and enzyme stability of A6 and G6 were evaluated against MDR E. coli CVCC195 using a previous method with minor revisions. The N6, A6, and G6 solutions were treated at different temperatures (20–100 °C) for 1 h, dissolved and incubated at different pH values (2–10) for 3 h, or incubated with trypsin or pepsin for 4 h. The inhibition zone diameters were measured after incubation at 37 °C for 18–24 h. The peptides were dissolved in H2O or mice serum at 37 °C to detect their serum stability and samples were removed at different time points to determine their residual activity by the inhibition zone or reverse-phase high-performance liquid chromatography (RP-HPLC) methods[62],[63].

[1] = Biodistribution of FITC-labeled peptides (in vivo fluorescence imaging); conditions: nude mice, FITC-labeled peptide 5 mg per kg intraperitoneally
Procedure: The nude mice were intraperitoneally injected with 5 mg per kg FITC-labeled A6, G6, and N6, respectively. Free FITC was used as a negative control.

E. coli LPS = test: BODIPY-TR-cadaverine (BC) displacement assay; type: binding, Escherichia coli; design: BC displacement from LPS, Mean: unit not given here; conditions: for BC displacement from LPS, Mean: mean of n = 3
Procedure: The affinity of SCPs (A6, G6, and N6) to E. coli LPS was detected by the fluorescent BC probe. The binding of fluorescent probe with LPS can cause fluorescence quenching. When peptides bind to LPS, BC probe can be replaced, which can result in an increase in fluorescence. Equal volumes of LPS (40 μg per ml) and BC probe (10 μM) in 50 mM Tris buffer (pH 7.4) were mixed and added into a black 96-well microtiter plate (180 μl mixture per well), followed by the addition of different concentrations of A6, G6, or N6 (20 μl per well). Ampicillin and PMB were used as the negative and positive control, respectively. Changes in fluorescence were measured by a fluorescence spectrophotometry at room temperature (excitation: 580 nm, emission: 620 nm) and the BC displacement rate was calculated.

E. coli CVCC195 = type: cell-based, Escherichia coli; conditions: for Fold change in MIC: E. coli CVCC195
Procedure: Bacterial resistance against the peptides was assessed via the MIC assays. […] After 16–18 h of incubation at 37 °C, cells from the second highest concentration showing visible growth were used to inoculate the subsequent cultures. The MIC values for drug passage cultures were obtained as described above. This process was repeated for 30 d.

tested bacterial strains = test: MIC, range over all tested strains (peer review file); type: cell-based; conditions: manuscript lines quoted in the peer review file
Procedure: The MIC values of A6, G6, the parental peptides (N6 and LBP14), LBPN6, scramble controls (N6CK, A6CK, and G6CK), and PMB were determined by the microtiter broth dilution method. The tested strains included Gram-negative bacteria, Gram-positive bacteria, and fungi and were cultured to the logarithmic growth phase, diluted to 10^5 CFU per ml, and added into 96-well plates (90 μl per well). Peptides or antibiotic were diluted with PBS by 2-fold dilution and were added to each well (10 μl per well). Polymyxin B (PMB) and PBS were used as the positive and negative control, respectively. […] All experiments were repeated three times.

Q: Which results are given for `CC(C)[C@@H]1NC(=O)CNC(=O)[C@H](CC(N)=O)NC(=O)[C@H](CCCNC(=N)N)NC(=O)[C@H](Cc2ccc(O)cc2)NC(=O)[C@H](C(C)C)NC(=O)[C@@H](NC(=O)[C@@H](NC(=O)[C@H](CC(N)=O)NC(=O)[C@H](Cc2c[nH]c3ccccc23)NC(=O)[C@H](C)NC(=O)[C@H](Cc2ccccc2)NC(=O)CN)C(C)C)CSSC[C@@H](C(=O)N[C@@H](Cc2cnc[nH]2)C(=O)N[C@@H](CCCNC(=N)N)C(=O)N[C@@H](CCCNC(=N)N)C(=O)N[C@@H](C)C(=O)N[C@@H](CC(N)=O)C(=O)O)NC(=O)[C@H](C(C)C)NC(=O)[C@H](CCCNC(=N)N)NC1=O` [N6] (H-GFAWNVCVYRNGVRVCHRRAN-OH; disulfide 7-16)?
A: antibacterial activity after pepsin (inhibition zone diameter), Mean (pepsin): 1.866; antibacterial activity without enzyme (inhibition zone diameter), Mean (pepsin): 2.004; antibacterial activity after trypsin (inhibition zone diameter), Mean (trypsin): 0; remaining at 1 h (in vitro; 1 h): 93%; remaining at 2 h (in vitro; 2 h): 87.5%; remaining at 4 h (in vitro; 4 h): 77.3%; time after injection at which the fluorescence disappeared / peptide was excreted [1]: 72 h

Q: Which “BC displacement from LPS, Mean” value (E. coli LPS; 0.05 μM, LPS 40 μg per ml + BC 10 μM, 50 mM Tris pH 7.4, ex 580/em 620 nm) does the source give for `CC1(C)S[C@@H]2[C@H](NC(=O)[C@H](N)c3ccccc3)C(=O)N2[C@H]1C(=O)O` [AMP, Ampicillin] here?
A: -0.1364

Q: What about the “BC displacement from LPS, Mean” value (E. coli LPS; 0.1 μM) of the same compound?
A: -0.2089

Q: And the “BC displacement from LPS, Mean” value (E. coli LPS; 0.5 μM)?
A: -1.734

Q: And the “BC displacement from LPS, Mean” value (E. coli LPS; 1 μM)?
A: -1.14

Q: And the “BC displacement from LPS, Mean” value (E. coli LPS; 5 μM)?
A: -3.263

Q: And the “BC displacement from LPS, Mean” value (E. coli LPS; 10 μM)?
A: -3.845

Q: And the “BC displacement from LPS, Mean” value (E. coli LPS; 50 μM)?
A: -4.033

Q: And the BC displacement ratio (E. coli LPS; 100 μM)?
A: did not displace BC probe

Q: And the “BC displacement from LPS, Mean” value (E. coli LPS; 100 μM)?
A: -4.227

Q: What does the source list for `CNC(C)C1CCC(N)C(OC2C(N)CC(N)C(OC3OCC(C)(O)C(NC)C3O)C2O)O1` (centres unmarked) [Gentamicin, gentamicin]?
A: Fold change in MIC (E. coli CVCC195; Day 1 of serial passage): 1 fold; Fold change in MIC (E. coli CVCC195; Day 2 of serial passage): 2 fold; Fold change in MIC (E. coli CVCC195; Day 3 of serial passage): 2 fold; Fold change in MIC (E. coli CVCC195; Day 4 of serial passage): 1 fold; Fold change in MIC (E. coli CVCC195; Day 5 of serial passage): 2 fold; Fold change in MIC (E. coli CVCC195; Day 6 of serial passage): 2 fold; Fold change in MIC (E. coli CVCC195; Day 7 of serial passage): 4 fold; Fold change in MIC (E. coli CVCC195; Day 8 of serial passage): 4 fold; Fold change in MIC (E. coli CVCC195; Day 9 of serial passage): 4 fold; Fold change in MIC (E. coli CVCC195; Day 10 of serial passage): 8 fold; Fold change in MIC (E. coli CVCC195; Day 11 of serial passage): 8 fold; Fold change in MIC (E. coli CVCC195; Day 12 of serial passage): 8 fold; Fold change in MIC (E. coli CVCC195; Day 13 of serial passage): 8 fold; Fold change in MIC (E. coli CVCC195; Day 14 of serial passage): 16 fold; Fold change in MIC (E. coli CVCC195; Day 15 of serial passage): 16 fold; Fold change in MIC (E. coli CVCC195; Day 16 of serial passage): 16 fold; Fold change in MIC (E. coli CVCC195; Day 17 of serial passage): 16 fold; Fold change in MIC (E. coli CVCC195; Day 18 of serial passage): 16 fold; Fold change in MIC (E. coli CVCC195; Day 19 of serial passage): 16 fold; Fold change in MIC (E. coli CVCC195; Day 20 of serial passage): 16 fold; Fold change in MIC (E. coli CVCC195; Day 21 of serial passage): 16 fold; Fold change in MIC (E. coli CVCC195; Day 22 of serial passage): 16 fold; Fold change in MIC (E. coli CVCC195; Day 23 of serial passage): 16 fold; Fold change in MIC (E. coli CVCC195; Day 24 of serial passage): 16 fold; Fold change in MIC (E. coli CVCC195; Day 25 of serial passage): 16 fold; Fold change in MIC (E. coli CVCC195; Day 26 of serial passage): 16 fold; Fold change in MIC (E. coli CVCC195; Day 27 of serial passage): 16 fold; Fold change in MIC (E. coli CVCC195; Day 28 of serial passage): 16 fold; Fold change in MIC (E. coli CVCC195; Day 29 of serial passage): 16 fold; Fold change in MIC (E. coli CVCC195; Day 30 of serial passage): 16 fold; MIC elevation (E. coli CVCC195; at 7 d of serial passage): 3 fold; MIC elevation (E. coli CVCC195; at 15 d of serial passage): 15 fold

Q: Which “MICs against the tested bacterial strains (range)” value (tested bacterial strains) does the source give for “RVQGRWKVRASFFKEAAAKEAAAKVCVYRGFAWNCHRRANNGVRV (disulfide 26-35) [A6CK]” here?
A: hardly any activity

Q: With `CC(C)[C@H](N)C(=O)N[C@H]1CSSC[C@@H](C(=O)N[C@@H](Cc2c[nH]cn2)C(=O)N[C@@H](CCCNC(=N)N)C(=O)N[C@@H](CCCNC(=N)N)C(=O)N[C@@H](C)C(=O)N[C@@H](CC(N)=O)C(=O)N[C@@H](CC(N)=O)C(=O)NCC(=O)N[C@H](C(=O)N[C@@H](CCCNC(=N)N)C(=O)N[C@H](C(=O)O)C(C)C)C(C)C)NC(=O)[C@H](CC(N)=O)NC(=O)[C@H](Cc2c[nH]c3ccccc23)NC(=O)[C@H](C)NC(=O)[C@H](Cc2ccccc2)NC(=O)CNC(=O)[C@H](CCCNC(=N)N)NC(=O)[C@H](Cc2ccc(O)cc2)NC(=O)[C@H](C(C)C)NC1=O` [N6CK] (H-VCVYRGFAWNCHRRANNGVRV-OH; disulfide 2-11; N-terminus and C-terminus assumed) as the compound, how does the “MICs against the tested bacterial strains (range)” value (tested bacterial strains) read?
A: hardly any activity
